Experimental data as given in PMC11907390, “Proteome‐Wide Profiling of Olaparib Interactors Using a Biotinylated Photoaffinity Probe” (Chembiochem, 2025).

Tests used:
CDK8 = CDK8 (Homo sapiens, UniProt P49336); test: photoaffinity labeling, streptavidin pull-down and MS in HeLa lysate, enriched over probe […] in two biological replicates; type: cell-based
PARP1 = PARP1 (Homo sapiens, UniProt P09874); test: PARP1 activity assay (Figure S6); also photoaffinity pull-down from HeLa lysate with MS and Western blot; type: biochemical
PARP4 = PARP4 (Homo sapiens, UniProt Q9UKK3); test: competition of probe […] photoaffinity pull-down in HeLa lysate by unlabeled olaparib ([…]), MS; type: cell-based
PARP4, sequence (Q9UKK3 whole entry): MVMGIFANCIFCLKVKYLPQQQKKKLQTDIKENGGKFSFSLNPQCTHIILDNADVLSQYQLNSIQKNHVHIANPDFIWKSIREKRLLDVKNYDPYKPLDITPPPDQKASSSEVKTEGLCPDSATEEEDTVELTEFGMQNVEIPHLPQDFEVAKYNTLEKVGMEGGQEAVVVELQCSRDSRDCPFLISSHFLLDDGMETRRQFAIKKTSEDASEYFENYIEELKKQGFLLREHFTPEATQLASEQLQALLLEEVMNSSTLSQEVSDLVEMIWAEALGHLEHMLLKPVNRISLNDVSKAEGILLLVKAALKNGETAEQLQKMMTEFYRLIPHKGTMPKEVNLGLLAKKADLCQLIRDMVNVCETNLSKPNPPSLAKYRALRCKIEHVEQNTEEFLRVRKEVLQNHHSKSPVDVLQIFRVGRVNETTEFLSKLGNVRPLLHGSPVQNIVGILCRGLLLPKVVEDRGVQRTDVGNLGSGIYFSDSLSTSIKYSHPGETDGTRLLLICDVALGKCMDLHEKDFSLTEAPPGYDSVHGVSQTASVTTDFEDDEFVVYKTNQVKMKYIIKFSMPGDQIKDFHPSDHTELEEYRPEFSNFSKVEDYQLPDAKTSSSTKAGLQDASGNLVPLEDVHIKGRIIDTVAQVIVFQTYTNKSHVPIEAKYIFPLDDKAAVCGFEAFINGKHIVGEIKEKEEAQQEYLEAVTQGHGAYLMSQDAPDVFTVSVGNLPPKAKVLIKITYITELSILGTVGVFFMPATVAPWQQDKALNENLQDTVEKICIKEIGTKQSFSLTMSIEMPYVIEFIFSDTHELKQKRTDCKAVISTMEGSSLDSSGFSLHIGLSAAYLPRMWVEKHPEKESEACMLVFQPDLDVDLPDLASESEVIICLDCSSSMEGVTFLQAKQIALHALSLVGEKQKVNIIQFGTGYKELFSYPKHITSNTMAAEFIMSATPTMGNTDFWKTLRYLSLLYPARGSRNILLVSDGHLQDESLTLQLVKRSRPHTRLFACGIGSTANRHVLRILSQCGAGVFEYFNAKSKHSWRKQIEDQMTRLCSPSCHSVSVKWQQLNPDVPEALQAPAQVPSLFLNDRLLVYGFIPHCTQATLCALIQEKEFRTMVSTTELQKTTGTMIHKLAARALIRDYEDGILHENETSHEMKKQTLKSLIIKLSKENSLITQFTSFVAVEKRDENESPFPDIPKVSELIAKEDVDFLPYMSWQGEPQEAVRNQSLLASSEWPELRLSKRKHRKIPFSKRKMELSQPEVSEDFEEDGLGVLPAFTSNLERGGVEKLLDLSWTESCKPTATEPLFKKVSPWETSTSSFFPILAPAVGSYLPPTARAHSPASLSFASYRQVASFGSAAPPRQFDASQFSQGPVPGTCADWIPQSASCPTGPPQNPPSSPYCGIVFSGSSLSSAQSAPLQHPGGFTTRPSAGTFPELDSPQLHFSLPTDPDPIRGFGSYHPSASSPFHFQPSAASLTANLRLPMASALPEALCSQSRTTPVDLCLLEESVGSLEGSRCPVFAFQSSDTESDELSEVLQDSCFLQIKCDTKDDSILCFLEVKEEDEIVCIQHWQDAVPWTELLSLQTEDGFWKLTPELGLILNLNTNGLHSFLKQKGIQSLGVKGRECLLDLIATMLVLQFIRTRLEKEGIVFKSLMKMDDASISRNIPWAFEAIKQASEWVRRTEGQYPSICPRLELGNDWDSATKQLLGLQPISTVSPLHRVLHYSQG

PARP1, sequence (P09874 2-1014): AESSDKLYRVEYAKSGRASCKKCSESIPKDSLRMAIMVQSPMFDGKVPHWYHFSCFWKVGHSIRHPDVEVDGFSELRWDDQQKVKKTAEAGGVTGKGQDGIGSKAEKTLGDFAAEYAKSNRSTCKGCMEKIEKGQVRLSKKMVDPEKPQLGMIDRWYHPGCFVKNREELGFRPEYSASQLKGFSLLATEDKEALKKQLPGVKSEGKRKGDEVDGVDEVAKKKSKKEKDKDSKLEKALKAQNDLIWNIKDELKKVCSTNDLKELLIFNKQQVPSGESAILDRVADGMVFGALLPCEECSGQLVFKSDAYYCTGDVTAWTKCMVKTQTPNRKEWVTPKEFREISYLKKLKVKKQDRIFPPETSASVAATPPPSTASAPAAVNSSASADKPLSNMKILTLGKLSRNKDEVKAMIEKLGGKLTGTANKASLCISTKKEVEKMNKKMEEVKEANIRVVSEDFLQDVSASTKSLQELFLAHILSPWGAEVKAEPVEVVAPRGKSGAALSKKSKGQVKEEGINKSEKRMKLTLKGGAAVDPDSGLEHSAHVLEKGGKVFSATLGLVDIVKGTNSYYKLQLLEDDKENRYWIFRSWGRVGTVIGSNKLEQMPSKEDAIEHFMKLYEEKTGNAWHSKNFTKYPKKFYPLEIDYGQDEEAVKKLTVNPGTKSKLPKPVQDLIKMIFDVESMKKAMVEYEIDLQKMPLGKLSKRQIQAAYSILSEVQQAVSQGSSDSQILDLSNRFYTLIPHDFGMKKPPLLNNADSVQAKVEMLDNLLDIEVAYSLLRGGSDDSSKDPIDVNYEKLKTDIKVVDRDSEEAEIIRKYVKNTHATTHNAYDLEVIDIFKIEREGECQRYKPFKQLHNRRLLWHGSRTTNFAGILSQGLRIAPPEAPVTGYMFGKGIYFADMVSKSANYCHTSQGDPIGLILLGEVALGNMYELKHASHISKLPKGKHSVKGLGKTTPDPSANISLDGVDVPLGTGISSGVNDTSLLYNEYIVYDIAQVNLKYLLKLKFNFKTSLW
CDK8, sequence (P49336 whole entry): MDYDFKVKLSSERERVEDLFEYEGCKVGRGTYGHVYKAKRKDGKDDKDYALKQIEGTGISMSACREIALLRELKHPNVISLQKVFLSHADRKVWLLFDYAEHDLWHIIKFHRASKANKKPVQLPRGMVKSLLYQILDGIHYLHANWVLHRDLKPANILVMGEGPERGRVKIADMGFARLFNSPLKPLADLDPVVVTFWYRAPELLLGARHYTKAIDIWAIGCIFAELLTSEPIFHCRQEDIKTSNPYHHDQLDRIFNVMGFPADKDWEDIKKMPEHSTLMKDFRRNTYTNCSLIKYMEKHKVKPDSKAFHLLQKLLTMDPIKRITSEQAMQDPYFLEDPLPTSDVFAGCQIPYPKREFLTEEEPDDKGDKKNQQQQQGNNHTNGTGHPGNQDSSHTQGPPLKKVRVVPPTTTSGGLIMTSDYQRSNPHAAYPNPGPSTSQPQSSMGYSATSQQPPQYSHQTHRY

Compound: O=C(CCCC[C@@H]1SC[C@@H]2NC(=O)N[C@@H]21)NCCOCCOCCOCCn1cc(CCCCC2(CCC(=O)N3CCN(C(=O)c4cc(Cc5n[nH]c(=O)c6ccccc56)ccc4F)CC3)N=N2)nn1 [compound 4, probe 4]
- photoaffinity labeling, streptavidin pull-down and MS in HeLa lysate, enriched o (CDK8): CDK8 and its paralogue CDK19, both transcriptional regulators, were identified in our screening as direct olaparib interactors
- IC50 (PARP1): 3.8 µM

Compound: O=C(c1cc(Cc2n[nH]c(=O)c3ccccc23)ccc1F)N1CCN(C(=O)C2CC2)CC1 [olaparib]
- competition of probe 4 photoaffinity pull-down in HeLa lysate by unlabeled olapa (PARP4): This concentration‐dependent competition demonstrates the specificity of these interactions for the olaparib pharmacophore
